In patent US20240351959A1, “USE OF ETHYNYLPYRIDINE COMPOUNDS AS NITRIFICATION INHIBITORS” (BASF SE, priority 2021, published 2024):

Key:
[1] = test system: nitrification; experiment: % NH4-N recovery from fertilized NH4-N in soil Limburgerhof; conditions: 20° C.
Procedure: The compounds according to the invention have been further tested in terms of their % NH4—N recovery from fertilized NH4—N.
The compounds according to general formula I were tested as follows in terms of the inhibition of nitrification:
100 g soil (soil Limburgerhof with pH(CaCl2) 6.8; 73% sand, 23% silt, 4% clay, which is classified according to FAO as a sandy loam) is filled into 500 ml plastic bottles and is moistened to 50% water holding capacity. The soil is incubated at 20° C. for two weeks prior to the experiments to activate the microbial biomass. 1 ml test solution, containing the compounds of formula I or the comparative compounds in the appropriate concentration (0.1, 0.3 or 1% (w/w) of fertilized NH4—N), and 10 mg nitrogen in the form of ammoniumsulfate-N(NH4—N) is added to the soil and everything mixed well. Unfertilized controls received 1 ml pure water. Bottles are capped but loosely to allow air exchange. The bottles are then incubated at 20° C. for 14 days and 28 days.
(§1) For analysis, 300 ml of a 1% K2SO4-solution is added to the bottle containing the soil and shaken for 2 hours in a horizontal shaker at 150 rpm. Then the whole solution is filtered through a filter (Macherey-Nagel Filter MN 807%). Ammonium content is then analyzed in the filtrate using an autoanalyzer. Ammonium was quantified via an indophenol blue dye at 660 nm.
The nitrification inhibition is expressed as % of NH4—N recovery from fertilized NH4—N(100%) after subtraction of unfertilized control soil. The number of replicates is 4.
For comparison of the % NH4—N recovery of the compound of the invention, i.e. Example 4, with the comparative compounds as shown above from different trials, the standard deviation of a common treatment of all trials with DMPP (3,4-dimethylpyrazole phosphate) was calculated. As the standard deviation was low, data from different trials were pooled together to compare the average % NH4—N recovery for the compound of the invention and the comparative compounds as shown above.

[2] = test system: nitrification; experiment: inhibition of nitrification in soil incubation (NI); conditions: soil incubated at 20° C., 14 days; for NI @ 0.3%: compound at 0.3% of nitrogen N; for NI @ 1%: compound at 1% of nitrogen N; for NI @ 0.1%: compound at 0.1% of nitrogen N
Procedure: The compounds of the invention have been tested as follows in terms of the inhibition of nitrification:
100 g soil is filled into 500 ml plastic bottles (e.g. soil sampled from the field) and is moistened to 50% water holding capacity. The soil is incubated at 20° C. for two weeks to activate the microbial biomass. 1 ml test solution, containing the compound of formula I in the appropriate concentration (usually 0.1, 0.3 or 1% of nitrogen N), or DMSO and 10 mg nitrogen in the form of ammoniumsulfate-N is added to the soil and everything mixed well. Bottles are capped but loosely to allow air exchange. The bottles are then incubated at 20° C. for 0 and 14 days.
as §1, with “Ammonium and nitrate” for “Ammonium”, “in” for “using”, “autoanalyzer” for “autoanalyzer. Ammonium was quantified via an indophenol blue dye”, “550 nm (Merck, AA11).” for “660 nm.”
The inhibition (NI® a specified concentration) is calculated as follows: […]

[3] = test system: N2O emission; experiment: reduction of N2O emission, potted corn plants in greenhouse soil; parameters: species or system Zea mais; conditions: 100 ppm ammonium sulfate, cumulated emissions over two weeks, relative to untreated but fertilized control
Procedure: Example 2 was additionally tested in terms of the reduction of N20 emission Corn seeds (Zea mais, cultivar “Shorty”) were planted 1 seed/pot in 8 cm pots in standard greenhouse soil (mixture of peat, loam and sand) and grown in a greenhouse at 20° C. and 60% humidity. Plants were grown for ten days in a completely randomized set-up. On day 6, plants were watered but not fertilized to 50% water holding capacity then left to dry out. On day ten, the plants were separated out and each pot set onto a plant saucer designed with an inner compartment for the pot and an outer ring that is filled with water. At time 0 water with or without 100 ppm ammonium sulfate and with or without the given concentration of nitrification inhibitor (1% and 0.3%) was applied to the plant such that the water holding capacity of the soil was around 50-60%. Then a gas sampling chamber was placed over the plant saucer such that the rim fit into the ring filled with water to create a gas-tight chamber and 20 cc air from the chamber were drawn into a syringe and immediately emptied in to a Vacutainer (Labco, 12 ml volume). […] Samples were analyzed in a Shimadzu 2014 GC equipped with an ECD system. Data was calculated as the cumulated emissions over the measurement period and the % reduction of N20 emissions relative to the untreated but fertilized control was calculated.

SMILES	% NH4—N recovery after 14 days ([1]; 0.1 wt.-% relative to NH4—N)	% NH4—N recovery after 14 days ([1]; 0.3 wt.-% relative to NH4—N)	% NH4—N recovery after 28 days ([1]; 0.3 wt.-% relative to NH4—N)	% NH4—N recovery after 14 days ([1]; 1 wt.-% relative to NH4—N)	% NH4—N recovery after 28 days ([1]; 1 wt.-% relative to NH4—N)	NI @ 0.3% [2]	NI @ 1% [2]	NI @ 0.1% [2]	% reduction of N2O relative to control @ 0.3% ([3]; nitrification inhibitor 0.3%)	% reduction of N2O relative to control @ 1% ([3]; nitrification inhibitor 1%)
C[Si](C)(C)C#Cc1ccccn1 [Comparative Example A]	46.50%	60.30%	51.2%	67.80%	68.1%					
C[Si](C)(C)C#Cc1ccc(Cl)cn1 [Comparative Example B]	20.94%	44.40%	11.1%	59.90%	61.0%					
Clc1cccc(C(Cl)(Cl)Cl)n1 [Comparative Example, reference compound]						35%	54%			
C#Cc1cc(Cl)ccn1 [Example 1]							83%	46%		
C#Cc1ccc(Cl)cn1 [Example 2]							76%	74%	91%	97%
C#Cc1ccc(Cl)nc1 [Example 3]						84%	94%	68%		
C#Cc1ccc(Cl)cn1 [Example 4]	74.00%	68.50%	59.0%	72.00%	56.0%					
